Measurements taken from publication PMC12383972, “Oral Pharmacokinetic Evaluation of a Microemulsion-Based Delivery System for Novel A190 Prodrugs” (Biomolecules, 2025).
Values after ≈ are worked out from the molar mass of the structure shown. Where two headings read alike, the source gives them in different places.

What was measured:
[1] = Solubility in microemulsion excipients; format: physicochemical; details: for solubility at 72 h: thermodynamic from solid, 25 °C
Description: Enhancement of drug solubility is the primary factor considered when evaluating ME components. To determine the solubility of A190-PD-60, an excess amount of A190-PD-60 was added to 1 g of each of the tested oils, surfactants and co-surfactants in glass vials with stoppers. A190-PD-60 and excipients were mixed together and vortexed. The mixtures were kept at a temperature of 25 ± 1.0 °C in an isothermal shaker for 72 h to achieve equilibrium. The mixtures were then centrifuged at 10,000× g for 15 min. The resulting supernatants were filtered using […] membrane filters and concentrations of A190-PD-60 in the filtrates were quantified via HPLC-UV analysis. Oils, emulsifiers, and co-emulsifiers with the highest solubilities were chosen for further miscibility analysis. For this, 2 mL of the selected excipients were mixed and vortexed for 10 min, then allowed to equilibrate for 1 h. The resulting mixtures were visually inspected for transparency and phase separation.

[2] = Chemical hydrolysis stability in PBS pH 7.4; format: physicochemical; details: PBS pH 7.4, 37 °C, 100 μM
Description: Chemical hydrolysis stability of each prodrug was assessed in a physiological pH 7.4 using phosphate buffered saline solution (PBS) as previously described. After preincubation of PBS solution at 37 °C for 5 min, stock solution of each prodrug (10 mM) was spiked to a final concentration of 100 μM. The samples were then incubated at 37 °C on a temperature-controlled orbital shaker operating at 200 rpm. At predetermined time points, 200 μL of incubation mixture was withdrawn and quenched with 100 μL of internal standard (0.5 μg/mL of fenofibric acid) and 700 μL ice cold ACN. Drug concentration was analyzed using HPLC-UV method as described earlier to assess the amount of prodrug recovered compared to the starting timepoint.

HepG2 cells [3] = assay: MTT cell viability assay, HepG2; format: cell-based, human; details: HepG2, 50 µM, 24 h and 48 h
Description: (§1) To evaluate the cytotoxicity of free A190-PD-60 (in 0.2% DMSO in DMEM), vehicle microemulsion, and A190-PD-60-ME against Caco-2 cells and HepG2 cells, an MTT assay using 3-(4,5-dimethylthiazol-2-yl)-2,5-diphenyltetrazolium bromide was performed as described before. Caco-2 and HepG2 cells were first cultured in DMEM supplemented with 10% FBS, penicillin (100 U/mL), and streptomycin (100 μg/mL) at 37 °C in a 5% CO2 humidified incubator. Upon reaching confluence, cells were trypsinized and seeded at 10 × 10^4 cells/well in 96-well plates. After 48 h, the medium was replaced with fresh dilutions of free A190-PD-60, vehicle microemulsion, or A190-PD-60-ME (0.1–50 µM) in DMEM. Controls included untreated cells and cells treated with 0.2% DMSO in DMEM. Following 24 h and 48 h incubation, the medium was replaced with 100 µL of MTT solution (5 mg/mL in PBS) and incubated for 3 h. The supernatant was then removed, and formazan crystals were dissolved in 100 µL DMSO. Absorbance was measured at 540 nm, and cell viability (%) was calculated as (OD of samples/OD of control) × 100.

[4] = Parallel artificial membrane permeability assay (PAMPA); format: in vitro ADME; details: PBS pH 6.8, 200 µg/mL donor, 5 h, room temperature
Description: Parallel artificial membrane permeability assay (PAMPA) is a widely used screening method to predict the passive intestinal permeability using a phospholipid coated lipophilic membrane which simulates the properties of the intestinal wall. The in vitro intestinal membrane permeability of free A190-PD-60 (dispersed in PBS pH 6.8), A190-PD-60 dispersion (dispersed in a mixture of 1:1 v/v methylcellulose/Tween 80), and A190-PD-60-ME were evaluated using a PAMPA plate (BD BioSciences, San Jose, CA, USA), as described previously. The samples for donor chamber were prepared by diluting free A190-PD-60, A190-PD-60 dispersion, and A190-PD-60-ME with PBS pH 6.8 to a final concentration of 200 µg/mL. […] The concentration of A190-PD-60 which permeated into the acceptor chamber was measured using a HPLC-UV system. The effective permeability coefficient (Pe) was then calculated using the following equation:Pe = −ln(1 − CA[t]/Cequilibrium)/(A × [1/VD + 1/VA] × t)(1) where Pe is the permeability (cm/s), A is the effective filter area (0.228 cm^2), VD is the volume of the donor well (0.2 mL), VA is the volume of the receptor well (0.3 mL), t is the total time of incubation in seconds, CA(t) denotes the concentration of drug in the receptor well at time t, and Cequilibrium represents (CD[t] × VD + CA[t] × VA)/(VD + VA), where CD(t) denotes the concentration of drug in the donor well at time t.

[5] = Bioconversion of prodrugs in rabbit plasma; format: in vitro ADME; details: 37 °C; for half-life at 100 μM / Prodrug bioconversion half-life (Rabbit plasma): 100 μM prodrug; for half-life at 100 μM: pooled rabbit plasma; for Prodrug bioconversion half-life (Rabbit plasma): Figure 3E
Description: (§2) Conversion of the respective prodrugs to the parent drug A190 was assessed in pooled rat and rabbit plasma. Following pre-incubation of plasma at 37 °C for 5 min, stock solution of each prodrug (10 mM) was spiked into the plasma to reach a final concentration of 100 μM. The mixture was incubated at 37 °C, 200 rpm on a temperature-controlled orbital shaker. Incubation mixture (200 μL) was withdrawn at pre-determined time points, and the reaction was terminated by the addition of 700 μL of ice cold ACN. 100 μL of internal standard (0.5 μg/mL of fenofibric acid) was then spiked, and the samples were vortexed and centrifuged at 10,000× g for 10 min. The resulting supernatants were collected and filtered using PTFE filters and injected into HPLC-UV system. The LC system was a reverse phased Shimadzu Prominence (Kyoto, Japan) using a Pursuit 5 C18 column. Isocratic separation was performed with mobile phase consisting of ACN/water (80/20 v/v) containing 0.1% trifluoroacetic acid and monitored at a UV detection of 227 nm.

Aqueous solubility = format: physicochemical; details: thermodynamic from solid; deionized water, 25 °C, 48 h equilibrium
Description: Aqueous solubility of each prodrug was assessed using deionized water. In brief, an excess amount of each prodrug was placed in a stoppered vial containing 1 mL of water. Each sample was vortexed and kept in an isothermal shaker maintained at 25 ± 1.0 °C to reach equilibrium for 48 h. The resulting mixture was centrifuged at 4000× g for 15 min, and the supernatant was collected and diluted with ACN followed by filtration with a 0.22 μm filter. The drug concentrations for all prodrugs were measured using HPLC-UV. Chromatographic separation was achieved using an Agilent Pursuit XRs 5 C18 column (250 × 4.6 mm) with a UV-detector system. The mobile phase consisted of ACN and water, both containing 0.1% trifluoroacetic acid in a ratio of 80:20 v/v, with a flow rate of 1 mL/min at 25 °C.

Caco-2 cells [6] = assay: MTT cell viability assay, Caco-2; format: cell-based, human; details: Caco-2, 50 µM, 24 h and 48 h
Description: as §1

[7] = Bioconversion of prodrugs in rat plasma; format: in vitro ADME; details: 37 °C; for half-life at 100 μM / Prodrug bioconversion half-life (Rat plasma): 100 μM prodrug; for half-life at 100 μM: pooled rat plasma; for Prodrug bioconversion half-life (Rat plasma): Figure 3E
Description: as §2

[8] = BCS classification from solubility and PAMPA permeability; details: predicted from low solubility and low permeability
CYP450 = tested on: CYP450; parameters: method as in PMID 32582345; details: preclinical assessment; cited from earlier work
[9] = parameters: method as in PMID 39879378; details: PAMPA, cited from earlier work
[10] = parameters: method as in PMID 32582345; details: preclinical assessment; cited from earlier work
HepG2 cells [11] = tested on: HepG2 cells; parameters: method as in PMID 39879378; details: HepG2, in 0.2% DMSO, 24 h and 48 h; cited from earlier work
hERG = tested on: hERG; parameters: method as in PMID 32582345; details: preclinical assessment; cited from earlier work
Caco-2 cells [12] = tested on: Caco-2 cells; parameters: method as in PMID 39879378; details: Caco-2, in 0.2% DMSO, 24 h and 48 h; cited from earlier work
PPARα = tested on: PPARα; parameters: method as in PMID 32096640, PMID 39961437; details: cited from earlier work

Structure (SMILES): Cc1cc(CNc2cccc(C(=O)OCc3oc(=O)oc3C)c2)ccc1OCc1ccc(F)cc1 [A190-PD-60, (5-Methyl-2-oxo-1,3-dioxol-4-yl)methyl3-((4-((4-Fluorobenzyl)oxy)-3-methylbenzyl)amino)benzoate]
- solubility in Capryol 90 relative to Maisine oil [1]: 13.9 fold
- solubility in Capryol 90 relative to oleic acid [1]: 4.8 fold
- solubility at 72 h ([1]; Capryol 90, oil or lipid, read-out: Solubility in Capryol 90): 4450 ± 310 µg/mL (≈ 9.32 mM)
- solubility at 72 h ([1]; Cremophor EL, organic solvent or mixture, read-out: Solubility in Cremophor EL): 9050 ± 40 µg/mL (≈ 19 mM)
- solubility at 72 h ([1]; Labrafil M, oil or lipid, read-out: Solubility in Labrafil M): 6580 ± 190 µg/mL (≈ 13.8 mM)
- solubility at 72 h ([1]; Lauroglycol FCC, oil or lipid, read-out: Solubility in Lauroglycol FCC): 4590 ± 50 µg/mL (≈ 9.61 mM)
- solubility at 72 h ([1]; Maisine oil, oil or lipid, read-out: Solubility in Maisine oil): 320 ± 300 µg/mL (≈ 0.67 mM)
- solubility at 72 h ([1]; Oleic acid, oil or lipid, read-out: Solubility in Oleic acid): 920 ± 40 µg/mL (≈ 1.93 mM)
- solubility at 72 h ([1]; Peceol, oil or lipid, read-out: Solubility in Peceol): 2170 ± 70 µg/mL (≈ 4.54 mM)
- solubility at 72 h ([1]; Polypropylene glycol, organic solvent or mixture, read-out: Solubility in Polypropylene glycol): 3790 ± 620 µg/mL (≈ 7.94 mM)
- solubility at 72 h ([1]; Transcutol HP, organic solvent or mixture, read-out: Solubility in Transcutol HP): 14100 ± 140 µg/mL (≈ 29.5 mM)
- solubility at 72 h ([1]; Tween 80, organic solvent or mixture, read-out: Solubility in Tween 80): 9170 ± 70 µg/mL (≈ 19.2 mM)
- drug remaining at 2 h [2]: over 80%
- cytotoxicity at highest tested concentration (HepG2 cells [3]): no significant cytotoxicity
- Effective Permeability Across Artificial Membrane (Pe) [4]: < 0.1 ×10^−6, cm/s
- Effective Permeability Across Artificial Membrane (Pe) ([4]; listed as A190-PD-60 in PBS): BLD
- half-life at 100 μM [5]: 0.5 h
- Prodrug bioconversion half-life (Rabbit plasma) [5]: 0.5 h
- solubility at 48 h (Aqueous solubility): 1.4 ± 0.23 µg/mL (≈ 0.00293 mM)
- cytotoxicity at highest tested concentration (Caco-2 cells [6]): no significant cytotoxicity
- half-life at 100 μM [7]: 0.3 h
- Prodrug bioconversion half-life (Rat plasma) [7]: 0.3 h
- BCS class [8]: BCS Class IV

Structure (SMILES): CCOC(=O)c1cccc(NCc2ccc(OCc3ccc(F)cc3)c(C)c2)c1 [A190-PD-14, Ethyl 3-((4-((4-Fluorobenzyl)oxy)-3-Methylbenzyl)amino)benzoate]
- drug remaining at 2 h [2]: 10%
- half-life at 100 μM [5]: 8.2 h
- Prodrug bioconversion half-life (Rabbit plasma) [5]: 8.2 h
- half-life at 100 μM [7]: 2.6 h
- Prodrug bioconversion half-life (Rat plasma) [7]: 2.6 h

Structure (SMILES): Cc1cc(CNc2cccc(C(=O)OC(C)C)c2)ccc1OCc1ccc(F)cc1 [A190-PD-154, Isopropyl 3-((4-((4-Fluorobenzyl)oxy)-3-Methylbenzyl)amino)benzoate]
- drug remaining at 2 h [2]: 10%
- half-life at 100 μM [5]: 1.4 h
- Prodrug bioconversion half-life (Rabbit plasma) [5]: 1.4 h
- half-life at 100 μM [7]: 6.8 h
- Prodrug bioconversion half-life (Rat plasma) [7]: 6.8 h

Structure (SMILES): COC(=O)c1cccc(NCc2ccc(OCc3ccc(F)cc3)c(C)c2)c1 [A190-PD-9, Methyl 3-((4-((4-Fluorobenzyl)oxy)-3-Methylbenzyl)amino)benzoate]
- drug remaining at 2 h [2]: about 40%
- half-life at 100 μM [5]: 7.2 h
- original concentration retained after 120 min in rabbit plasma ([5]; 100 μM, 120 min): ≥ 80%
- Prodrug bioconversion half-life (Rabbit plasma) [5]: 7.2 h
- half-life at 100 μM [7]: 9.6 h
- original concentration retained after 120 min in rat plasma ([7]; 100 μM, 120 min): ≥ 80%
- Prodrug bioconversion half-life (Rat plasma) [7]: 9.6 h

Structure (SMILES): Cc1cc(CNc2cccc(C(=O)O)c2)ccc1OCc1ccc(F)cc1 [A190, 3-((4-((4-fluorobenzyl)oxy)-3-methylbenzyl)amino)benzoic acid]
- CYP450 liability (CYP450): absence
- effective permeability (Pe), dispersion form ([9]; dispersion form): 0.13 ± 0.04 × 10^−6 cm/s
- effective permeability (Pe), A190 in PBS ([9]; in PBS): 0.09 ± 0.02 × 10^−6 cm/s
- microsomal metabolic stability [10]: acceptable
- concentration up to which safe (HepG2 cells [11]): < 50 µM
- hERG-related cardiotoxicity (hERG): absence
- concentration up to which safe (Caco-2 cells [12]): < 50 µM
- subtype selectivity (PPARα; PPAR-α over γ/δ isoforms): > 2700 fold
- EC50 (PPARα; PPARα agonism): < 40 nM
